Data reported in ChEMBL document CHEMBL1201862, “PubChem BioAssay data set” (2004).
Calls of active or inactive are those of the source. No stated cut-off is given here; in the data, actives have a measured IC50 and inactives only a lower limit.

Target: Envelope glycoprotein gp160 (Human immunodeficiency virus 1, UniProt Q6QLK5)
Assay: cell-free HIV fusion peptide-binding blockers – biochemical, uHTS, fluorescence dequenching, […] (AID 1986)

Sequence of Envelope glycoprotein gp160 (Q6QLK5 whole entry, the tested form may be a part): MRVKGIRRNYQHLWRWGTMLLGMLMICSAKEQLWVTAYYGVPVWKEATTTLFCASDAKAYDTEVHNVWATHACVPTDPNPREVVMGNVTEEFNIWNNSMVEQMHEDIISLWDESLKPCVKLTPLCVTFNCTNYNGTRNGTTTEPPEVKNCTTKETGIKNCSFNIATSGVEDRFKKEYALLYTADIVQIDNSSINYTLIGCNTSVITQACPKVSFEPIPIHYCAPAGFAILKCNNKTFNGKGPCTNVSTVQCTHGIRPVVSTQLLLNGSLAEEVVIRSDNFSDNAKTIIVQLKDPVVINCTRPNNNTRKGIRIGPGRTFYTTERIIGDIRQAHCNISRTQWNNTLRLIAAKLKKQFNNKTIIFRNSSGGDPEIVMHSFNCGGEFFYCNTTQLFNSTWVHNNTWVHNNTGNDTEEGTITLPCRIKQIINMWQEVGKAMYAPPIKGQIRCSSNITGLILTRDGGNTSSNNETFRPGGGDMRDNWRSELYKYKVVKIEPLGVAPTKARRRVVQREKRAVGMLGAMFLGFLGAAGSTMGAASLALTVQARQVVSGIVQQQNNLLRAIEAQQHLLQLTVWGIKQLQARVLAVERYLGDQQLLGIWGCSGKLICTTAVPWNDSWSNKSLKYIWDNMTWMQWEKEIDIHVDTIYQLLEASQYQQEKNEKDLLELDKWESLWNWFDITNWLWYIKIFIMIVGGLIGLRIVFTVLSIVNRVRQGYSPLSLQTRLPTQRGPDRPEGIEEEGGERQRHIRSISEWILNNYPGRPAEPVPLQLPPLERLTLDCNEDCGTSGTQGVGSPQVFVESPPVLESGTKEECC

Row | Structure (SMILES) | IC50
1 | COc1cc(/C=C2\SC(NS(=O)(=O)c3ccc(C)cc3)=NC2=O)c([N+](=O)[O-])cc1OC | 17.1 µM (active)
2 | O=C(O)CCn1cc(/C=C/C(=O)c2ccc(Cl)cc2)c(-c2cccc(Br)c2)n1 | 28 µM (active)
